# Results as given in US12295938B2, “Composition for treating castration-resistant prostate cancer, comprising quassinoids” (SAMSUNG LIFE PUBLIC WELFARE FOUNDATION, priority 2019, dated 2025).
# Structures can show the parent of a compound that is named as a salt. Where two headings read alike, the source gives them in different places.
# Legend:
# Assay type in all cases: cell-based
# [1] = test system: AR transcriptional activity; test: MMTV-LUC luciferase reporter assay in 22RV1 cells, DHT+ (screening and IC50); conditions: for activity at 0.1 µM / activity at 1 µM / activity at 10 µM / IC50: Homo sapiens; for activity at 0.1 µM / activity at 1 µM / activity at 10 µM / MMTV-LUC activity (%) DHT+: with DHT, control = 100; for IC50: AR transcriptional activity
# Protocol: (§1) A library of antimalarial agents was screened using a luciferase reporter assay to measure changes in AR/AR-V7 transcriptional activity.
# (§2) Screening was made primarily with 10 μM of each drug.
# [2] = test system: hormone-dependent AR transcriptional activity; test: MMTV-LUC reporter assay in LNCaP cells, hormone-dependent AR transcriptional activity; conditions: Homo sapiens, read-out: IC50 (nM) DHT+
# [3] = test system: AR-V7 transcriptional activity; test: MMTV-LUC luciferase reporter assay in 22RV1 cells, DHT− (screening and IC50); conditions: for activity at 0.1 µM / activity at 1 µM / activity at 10 µM / IC50: Homo sapiens; for activity at 0.1 µM / activity at 1 µM / activity at 10 µM / IC50 / MMTV-LUC activity (%) DHT−: 22RV1 cells; for activity at 0.1 µM / activity at 1 µM / activity at 10 µM / MMTV-LUC activity (%) DHT−: no DHT, control = 100; for IC50: AR-V7 transcriptional activity; for potency as inhibitor of AR/AR-V7 transcriptional activity compared with ailanthone: in both CRPC 22RV1 cells and androgen-dependent LNCaP cells
# Protocol: as §1, §2
# 22RV1 cells = test: MTT cell growth inhibition assay, 22RV1; conditions: Homo sapiens, read-out: IC50 (22RV1 cell growth)
# Protocol: In brief, 22RV1 cells were seeded at a density of 1×10^4 cells/well into 96-well plates and treated with each drug at 6 concentrations ranging from 5 nM to 200 nM for 72 hours. Afterwards, an MTT dye solution and a solubilization solution/stop mix were added according to an MTT assay method, followed by reading absorbance at 570 nm to analyze cell viability and IC50.
Compound,activity at 10 µM ([1]; 10 uM),activity at 10 µM ([3]; 10 uM),MMTV-LUC activity (%) DHT+ ([1]; 1 uM),MMTV-LUC activity (%) DHT+ ([1]; 10 uM),MMTV-LUC activity (%) DHT− ([3]; 1 uM),MMTV-LUC activity (%) DHT− ([3]; 10 uM),also measured
"COC(=O)[C@@]12OC[C@]34[C@H]([C@@H](O)[C@@H]1O)[C@@]1(C)CC(=O)C(O)=C(C)[C@@H]1C[C@H]3OC(=O)[C@H](OC(=O)CC(C)C)[C@@H]24 [Bruceine A, bruceine A]",2.8 ± 0.2%,11 ± 2.5%,–,–,–,–,"activity at 0.1 µM ([1]; 0.1 uM): 5.7 ± 1%; activity at 1 µM ([1]; 1 uM): 3.6 ± 0.2%; IC50 [1]: 9.45 nM; IC50 ([2]; LNCaP): 15 nM; activity at 0.1 µM ([3]; 0.1 uM): 19.5 ± 20.7%; activity at 1 µM ([3]; 1 uM): 13.5 ± 1.7%; IC50 [3]: 14.3 nM; potency as inhibitor of AR/AR-V7 transcriptional activity compared with ailanthone [3]: more potent inhibitors against AR/AR-V7 transcriptional activity; IC50 (22RV1 cells; 22Rv1, 72 h): 16.5 nM"
"COC(=O)[C@@]12OC[C@]34[C@H]([C@@H](O)[C@@H]1O)[C@@]1(C)CC(=O)C(O)=C(C)[C@@H]1C[C@H]3OC(=O)[C@H](OC(=O)C=C(C)C)[C@@H]24 [Brusatol, brusatol]",3.2 ± 0.2%,10.3 ± 2.7%,–,–,–,–,"activity at 0.1 µM ([1]; 0.1 uM): 5.7 ± 0.6%; activity at 1 µM ([1]; 1 uM): 4 ± 0.5%; IC50 [1]: 6.23 nM; IC50 ([2]; LNCaP cells): 11.7 nM; activity at 0.1 µM ([3]; 0.1 uM): 18.9 ± 20.2%; activity at 1 µM ([3]; 1 uM): 14 ± 1.3%; IC50 [3]: 14 nM; potency as inhibitor of AR/AR-V7 transcriptional activity compared with ailanthone [3]: more potent inhibitors against AR/AR-V7 transcriptional activity; IC50 (22RV1 cells; 22RV1 cells, MTT, 72 hours): 15.1 nM"
CC1=CC(=O)[C@@H](O)[C@]2(C)[C@H]3[C@@H](O)[C@H](O)[C@]4(C)OC[C@@]35[C@@H](C[C@@H]12)OC(=O)[C@H](O)[C@]54O [Bruceine D],–,–,2.0 ± 0.2%,1.1 ± 0.1%,7.0 ± 1.2%,7.9 ± 1.3%,MMTV-LUC activity (%) DHT+ ([1]; 0.1 uM): 32.6 ± 6.2%; MMTV-LUC activity (%) DHT− ([3]; 0.1 uM): 46.0 ± 6.4%
COC(=O)[C@]12OC[C@@]34[C@@H](CC5=C(C)C(=O)C(O)=C[C@]5(C)[C@H]3[C@@H](O)[C@@H]1O)OC(=O)[C@H](OC(=O)CC(C)C)[C@@H]24 [Dehydrobruceine A],–,–,–,164.2 ± 16.0%,–,133.8 ± 14.5%,–
C=C1CC[C@@H]2[C@](C)(CO)[C@H](O)CC[C@@]2(C)[C@@H]1C/C=C1/C(=O)OC[C@H]1O [Andrographolide],196 ± 5%,157 ± 4.3%,–,–,–,–,–
"CC(C)=CC[C@H](OC(=O)C=C(C)C)C1=CC(=O)c2c(O)ccc(O)c2C1=O [β, β-Dimethylacrylalkannin]",–,–,107.9 ± 7.0%,19.9 ± 3.5%,100.2 ± 11.4%,33.3 ± 3.2%,–
"CC1CCCC=CC(=O)c2c(O)cc(O)cc2CC(=O)O1 (stereo not shown) [10,11-Dehydrocurvularin]",–,–,206.9 ± 15.0%,5.5 ± 0.6%,383.1 ± 24.6%,16.3 ± 2.5%,–
CCN(CC)Cc1cc(Nc2ccnc3cc(Cl)ccc23)ccc1O [Amodiaquine dihydrochloride dihydrate],102 ± 4.3%,91.6 ± 2.9%,–,–,–,–,–
CC1=CC(=O)[C@@H](O)[C@@]2(C)[C@H]1[C@@H](O)[C@H]1OC(=O)[C@H](O)[C@]3(O)[C@]14CO[C@]3(CO)[C@@H](O)[C@H](O)[C@H]24 [Yadanziolide B],–,–,4.2 ± 0.4%,4.0 ± 0.5%,7.2 ± 0.8%,8.2 ± 1.0%,MMTV-LUC activity (%) DHT+ ([1]; 0.1 uM): 32.8 ± 9.0%; MMTV-LUC activity (%) DHT− ([3]; 0.1 uM): 23.1 ± 5.2%
CO[C@H]1O[C@@H]2O[C@@]3(C)CC[C@H]4[C@H](C)CC[C@@H]([C@H]1C)[C@@]24OO3 [Artemether],138 ± 8.8%,97.5 ± 19.5%,–,–,–,–,–
O=C(CCc1ccc(O)cc1)c1c(O)cc(O)cc1O[C@@H]1O[C@H](CO)[C@@H](O)[C@H](O)[C@H]1O [Phlorizin],184 ± 12.6%,154 ± 6.6%,–,–,–,–,–
